The source of these data is US20170296568A1, “SIRTUIN GENE POTENTIATOR, AND PHARMACEUTICAL PRODUCT, COSMETIC PRODUCT, AND FOOD PRODUCT USING SAME” (MORISHITA JINTAN CO., LTD., priority 2012, published 2017).

The assay deals with hSIRT1 promoter. Nature of the assay: Screening for SIRT1 enhancing polyphenol or terpenoid: hSIRT1 promoter activity (EGFP fluorescence) in Caco-2-hSIRT1p-EGFP cells. The class given is cell-based, human. Conditions: 10 μM, 2 days after addition, relative ratio to control (PBS), FIG. 1. An excerpt:
First, the promoter region (−1593 to −1 bp) of hSIRT1 (human SIRT1) was acquired using the LA-PCR method using, as a template, a human genome DNA extracted from TIG-1 cells (obtained from Institute of Development, Aging and Cancer, Tohoku University), with primers synthesized based on reported information of the hSIRT1 genomic sequence so as to synthesize primers having added AseI and NheI recognition sequences at their respective ends (hSIRT1p-AseI (SEQ ID NO: 1) and hSIRT1p-NheI (SEQ ID NO: 2)). The PCR reaction condition was at 94° C. for 1 minute, followed by at 98° C. for 20 seconds; and at 68° C. for 2 minutes, 34 cycles; and then at 72° C. for 10 minutes for extension reaction. LA-Taq from Takara Shuzo Co., Ltd. was used as the TaqDNApolymerase. The primers were synthesized by Nippon EGT based on our request.
The hSIRT1 promoter fragment obtained by the LA-PCR was subjected to TA cloning using a pGEM-T Easy vector (manufactured by Promega KK). Furthermore, the base sequence thereof was confirmed by sequencing. The hSIRT1 promoter fragment, inserted into the pGEM-T Easy vector, was cut out by digestion with the restriction enzymes AseI and NheI, and the CMV promoter of a pEGFP-C3 (manufactured by Takara Bio Inc.) was removed by digestion with AseI and NheI in a similar manner, and the hSIRT1 promoter fragment was inserted into that removed site, so that phSIRT1p-EGFP was obtained.
Transfection was performed using a LIPOFECT AMINE 2000 REAGENT (manufactured by Life Technologies) according to its protocol. On the day before the transfection, Caco-2 cells (human colonic cancer-derived cells obtained from Riken BioResource Center) were plated at 1.0×10^6 in a 10-mL dish. On the day of the transfection, phSIRT1p-EGFP (10 μg) was diluted in a serum-free OPTI-MEM medium to a volume of 750 μL, after which 15 μL of LIPOFECT AMINE Reagent was diluted in a serum-free OPTI-MEM medium to […], and they were incubated at room temperature for 5 minutes. The transfection using the LIPOFECT AMINE Reagent was performed in the absence of serum, during which the culture medium of the Caco-2 cells plated on the previous day was removed, and was replaced by 5 mL of serum-free OPTI-MEM medium. After 30 minutes of this, 1.5 mL of DNA-LIPOFECT AMINE 2000 mixture was added to each 10-mL dish. After the addition, the dish was gently shaken to mix the DNA-LIPOFECT AMINE and the OPTI-MEM. After the culture for 3 hours, the DNA-LIPOFECT AMINE mixture solution was removed, and the medium was replaced by a serum-containing culture medium. Subsequently, culture was performed under the environment at 5% CO2/95% air and 37° C. for 21 hours, and the culture medium was replaced by a new one.
Since phSIRT1p-EGFP is resistant to the drug G418, the drug G418 was added to the transfected cells to 70 μg/mL to subject them to the drug selection for a week. The culture medium was replaced by a new one every three days, and G418 was added every time at the same concentration. Accordingly, Caco-2-hSIRT1p-EGFP cells were obtained.
Caco-2-hSIRT1p-EGFP cells were plated at 0.6×10^4 cells/well in a 96-well plate. On the next day, 10 μM polyphenol or terpenoid, or control (PBS) was added to each well. At 2 days after the addition, the culture solution was aspirated, after which 100 μL of 4% paraformaldehyde was added to each well, and the plate was allowed to stand at room temperature for 10 minutes. After the plate was allowed to stand for 10 minutes, 4% paraformaldehyde was aspirated, 100 μL of Cellstain (registered trademark)-Hoechst 33342 solution (Dojindo) diluted 1/500 with PBS was added to each well, and the plate was allowed to stand at room temperature in the dark for 15 minutes and the solution was then aspirated. Then, 100 μL of PBS was added to each well, and the fluorescence intensity was measured using an IN Cell Analyzer 1000 (GE Healthcare, Amersham Place, UK). The promoter activity was represented by a relative ratio to the activity of the control.
As to `O=C1O[C@H]2[C@@H]3OC(=O)c4cc(O)c(O)c(O)c4-c4c(O)c(O)c5oc(=O)c6c(c(O)c(O)c7oc(=O)c4c5c76)-c4c(cc(O)c(O)c4O)C(=O)OC[C@H]3OC(O)[C@@H]2OC(=O)c2cc(O)c(O)c(O)c2-c2c1cc(O)c(O)c2O` (mixture of isomers) [punicalagin], the “relative hSIRT1 promoter activity” value was “particularly strong hSIRT1 promoter enhancing activity”.

Regarding `C[C@@]12C=Cc3occc3[C@H]1CC[C@@]13C[C@@H](CC[C@H]12)[C@@](O)(CO)C3` [kahweol], the “relative hSIRT1 promoter activity” value is “particularly strong hSIRT1 promoter enhancing activity”. The same measure for `O=c1c(O)c(-c2ccc(O)c(O)c2)oc2cc(O)ccc12` [fisetin]: “particularly strong hSIRT1 promoter enhancing activity”; for `O=c1oc2cc(O)ccc2c2ccc(O)cc12` [urolithin A]: “particularly strong hSIRT1 promoter enhancing activity”; for `O=C1OC[C@H]2OC(O)[C@H](O)[C@@H](O)[C@@H]2OC(=O)c2cc(O)c(O)c(O)c2-c2c(O)c(O)c3oc(=O)c4c(c(O)c(O)c5oc(=O)c2c3c54)-c2c1cc(O)c(O)c2O` (mixture of isomers) [punicalin]: “particularly strong hSIRT1 promoter enhancing activity”.
